Laboratory results published in publication PMC7211198, “Phase 1b study of a small molecule antagonist of human chemokine (C-C motif) receptor 2 (PF-04136309) in combination with nab-paclitaxel/gemcitabine in first-line treatment of metastatic pancreatic ductal adenocarcinoma” (Investigational New Drugs, 2019).

Assay: Safety and tolerability (TEAEs, SAEs, DLTs, RP2D) in phase Ib study
Type: in vivo, human
From the text: Safety assessments included collection of adverse events (AEs), serious AEs (SAEs), vital signs and physical examination, electrocardiogram (12-lead), laboratory assessments, including pregnancy test, and verification of concomitant treatments. A patient was considered as DLT-evaluable if the patient experienced a DLT or if otherwise, in the absence of a DLT, the patient received at least 85% of the planned doses of each study drug in the first 28-day cycle. DLTs were defined as any of the following events occurring in the first cycle of treatment (days 1 through 28) and attributed (i.e., judged to be at least possibly related) to the combination of PF-04136309 plus nab-paclitaxel/gemcitabine, where relationship with the combination could not be ruled out. DLTs were hematologic events of grade 4 neutropenia lasting >5 days; febrile neutropenia; grade ≥ 3 neutropenic infection; grade ≥ 3 thrombocytopenia with grade ≥ 2 bleeding; grade 4 thrombocytopenia; and nonhematologic events of grade 3 toxicities. Exceptions included nausea and vomiting responding to prophylaxis and/or treatment and lasting <7 days from each chemotherapy infusion period; diarrhea responding to treatment and lasting <7 days; grade 3 fatigue lasting <7 days; grade 3 QT interval corrected for heart rate prolongation (>500 msec) persisting after correction of any reversible causes; and/or grade 3 aspartate aminotransferase (AST) and/or alanine aminotransferase (ALT) increase lasting ≤7 days. All grade 4 toxicities and a delay of >2 weeks in receiving the next scheduled cycle due to persistent treatment-related toxicities were considered DLTs. AEs meeting DLT criteria in the dose-expansion phase included grade 3 events of diarrhea, hypokalemia, and dysesthesia and grade 4 hypoxia. […] AEs were graded according to the National Cancer Institute Common Terminology Criteria for Adverse Events, version 4.03.

[1] = 500 mg BID + nab-P/Gem, treatment-related SAE
[2] = 750 mg BID + nab-P/Gem, n = 4, treatment-related TEAE
[3] = 750 mg BID + nab-P/Gem, all-causality SAE
[4] = 750 mg BID + nab-P/Gem, all-causality TEAE

O=C(NCC(=O)N1CC[C@H](N[C@H]2CC[C@@](O)(c3ccc(-c4ncccn4)cn3)CC2)C1)c1cccc(C(F)(F)F)c1 [PF-04136309]
Any SAE, Grade 3 [1]: 3 (17.6) n (%) | Any SAE, Grade 4 [1]: 1 (5.9) n (%) | Any SAE, Grade 5 [1]: 1 (5.9) n (%) | Any SAE, Total [1]: 5 (29.4) n (%) | Hypoxia, Grade 1 [1]: 0 n (%) | Hypoxia, Grade 2 [1]: 0 n (%) | Hypoxia, Grade 3 [1]: 0 n (%) | Hypoxia, Grade 4 [1]: 1 (5.9) n (%) | Hypoxia, Grade 5 [1]: 0 n (%) | Hypoxia, Total [1]: 1 (5.9) n (%) | Pneumonia, Grade 1 [1]: 0 n (%) | Pneumonia, Grade 2 [1]: 0 n (%) | Pneumonia, Grade 3 [1]: 0 n (%) | Pneumonia, Grade 4 [1]: 0 n (%) | Pneumonia, Grade 5 [1]: 1 (5.9) n (%) | Pneumonia, Total [1]: 1 (5.9) n (%) | Pneumonitis, Grade 1 [1]: 0 n (%) | Pneumonitis, Grade 2 [1]: 0 n (%) | Pneumonitis, Grade 3 [1]: 3 (17.6) n (%) | Pneumonitis, Grade 4 [1]: 0 n (%) | Pneumonitis, Grade 5 [1]: 0 n (%) | Pneumonitis, Total [1]: 3 (17.6) n (%) | Pyrexia, Grade 1 [1]: 0 n (%) | Pyrexia, Grade 2 [1]: 1 (5.9) n (%) | Pyrexia, Grade 3 [1]: 0 n (%) | Pyrexia, Grade 4 [1]: 0 n (%) | Pyrexia, Grade 5 [1]: 0 n (%) | Pyrexia, Total [1]: 1 (5.9) n (%) | DLT events (500 mg BID starting dose, three of 17 patients, four DLTs): grade 3 dysesthesia, diarrhea, and hypokalemia and one event of grade 4 hypoxia | DLT (750 mg BID + nab-P/Gem, n = 4, first cycle (days 1 through 28)): 1 (25) n (%) | ALT increase, grade ≥3 [2]: 1 (25.0) n (%) | AST increase, grade ≥3 [2]: 1 (25.0) n (%) | Anemia, grade ≥3 [2]: 0 n (%) | Fatigue, grade ≥3 [2]: 0 n (%) | Leukopenia, grade ≥3 [2]: 3 (75.0) n (%) | Lymphopenia, grade ≥3 [2]: 1 (25.0) n (%) | Neutropenia, grade ≥3 [2]: 3 (75.0) n (%) | Pneumonitis, grade ≥3 [2]: 0 n (%) | Any SAE, Grade 1 [3]: 0 n (%) | Any SAE, Grade 2 [3]: 1 (25.0) n (%) | Any SAE, Grade 3 [3]: 2 (50.0) n (%) | Any SAE, Grade 4 [3]: 0 n (%) | Any SAE, Grade 5 [3]: 0 n (%) | Any SAE, Total [3]: 3 (75.0) n (%) | Appetite decrease, Grade 1 [3]: 0 n (%) | Appetite decrease, Grade 2 [3]: 0 n (%) | Appetite decrease, Grade 3 [3]: 1 (25.0) n (%) | Appetite decrease, Grade 4 [3]: 0 n (%) | Appetite decrease, Grade 5 [3]: 0 n (%) | Appetite decrease, Total [3]: 1 (25.0) n (%) | Cellulitis, Grade 1 [3]: 0 n (%) | Cellulitis, Grade 2 [3]: 0 n (%) | Cellulitis, Grade 3 [3]: 1 (25.0) n (%) | Cellulitis, Grade 4 [3]: 0 n (%) | Cellulitis, Grade 5 [3]: 0 n (%) | Cellulitis, Total [3]: 1 (25.0) n (%) | Cognitive disorder, Grade 1 [3]: 0 n (%) | Cognitive disorder, Grade 2 [3]: 0 n (%) | Cognitive disorder, Grade 3 [3]: 1 (25.0) n (%) | Cognitive disorder, Grade 5 [3]: 0 n (%) | Cognitive disorder, Total [3]: 1 (25.0) n (%) | Gastroesophageal reflux disease, Grade 1 [3]: 0 n (%) | Gastroesophageal reflux disease, Grade 2 [3]: 0 n (%) | Gastroesophageal reflux disease, Grade 3 [3]: 1 (25.0) n (%) | Gastroesophageal reflux disease, Grade 4 [3]: 0 n (%) | Gastroesophageal reflux disease, Grade 5 [3]: 0 n (%) | Gastroesophageal reflux disease, Total [3]: 1 (25.0) n (%) | Rash, Grade 1 [3]: 0 n (%) | Rash, Grade 2 [3]: 1 (25.0) n (%) | Rash, Grade 3 [3]: 0 n (%) | Rash, Grade 4 [3]: 0 n (%) | Rash, Grade 5 [3]: 0 n (%) | Rash, Total [3]: 1 (25.0) n (%) | ALT increase, Grade 1 [4]: 0 n (%) | ALT increase, Grade 2 [4]: 2 (50.0) n (%) | ALT increase, Grade 3 [4]: 1 (25.0) n (%) | ALT increase, Grade 4 [4]: 0 n (%) | ALT increase, Grade 5 [4]: 0 n (%) | ALT increase, Total [4]: 3 (75.0) n (%) | Alopecia, Grade 1 [4]: 2 (50.0) n (%) | Alopecia, Grade 2 [4]: 1 (25.0) n (%) | Alopecia, Grade 3 [4]: 0 n (%) | Alopecia, Grade 4 [4]: 0 n (%) | Alopecia, Grade 5 [4]: 0 n (%) | Alopecia, Total [4]: 3 (75.0) n (%) | Anemia, Grade 1 [4]: 0 n (%) | Anemia, Grade 2 [4]: 2 (50.0) n (%) | Anemia, Grade 3 [4]: 0 n (%) | Anemia, Grade 4 [4]: 0 n (%) | Anemia, Grade 5 [4]: 0 n (%) | Anemia, Total [4]: 2 (50.0) n (%) | Any AE, Grade 1 [4]: 0 n (%) | Any AE, Grade 2 [4]: 0 n (%) | Any AE, Grade 3 [4]: 4 (100.0) n (%) | Any AE, Grade 4 [4]: 0 n (%) | Any AE, Grade 5 [4]: 0 n (%) | Any AE, Total [4]: 4 (100.0) n (%) | Appetite decrease, Grade 1 [4]: 1 (25.0) n (%) | Appetite decrease, Grade 2 [4]: 0 n (%) | Appetite decrease, Grade 3 [4]: 1 (25.0) n (%) | Appetite decrease, Grade 4 [4]: 0 n (%) | Appetite decrease, Grade 5 [4]: 0 n (%) | Appetite decrease, Total [4]: 2 (50.0) n (%) | Cellulitis, Grade 1 [4]: 0 n (%) | Cellulitis, Grade 2 [4]: 1 (25.0) n (%) | Cellulitis, Grade 3 [4]: 1 (25.0) n (%) | Cellulitis, Grade 4 [4]: 0 n (%) | Cellulitis, Grade 5 [4]: 0 n (%) | Cellulitis, Total [4]: 2 (50.0) n (%) | Chills, Grade 1 [4]: 2 (50.0) n (%) | Chills, Grade 2 [4]: 0 n (%) | Chills, Grade 3 [4]: 0 n (%) | Chills, Grade 4 [4]: 0 n (%)
